Measurements: paper PMC3578785, “Improved BM212 MmpL3 Inhibitor Analogue Shows Efficacy in Acute Murine Model of Tuberculosis Infection” (PLoS ONE, 2013)

Columns and labels:
[1] = test system: H37Rv; design: species or system mice; details: mouse, in vivo, po
[2] = Oral pharmacokinetic studies in mice, peripheral total blood; details: female, C57BL/6, mouse, whole blood
[3] = biological target: human serum albumin (HSA) (Homo sapiens, UniProt P02768); assay type: in vitro ADME
Method: Standard physical chemical property determination methods were used. Please see the Supporting Information for details.
Protocol S4. Determination of compounds binding to human serum albumin (HSA).
The determination of compounds binding to human serum albumin (HSA) was carried out by retention time measurements using immobilized HSA HPLC columns obtained from Chiral Technologies Ltd, France. The column dimensions were 50x3 mm. The mobile phase was 50 mM ammonium acetate buffer pH 7.4 and HPLC grade 2-propanol. HPLC Method: flow rate 1.8 ml/min applying 2.5 min 2-propanol gradient up to 30%. From 2.5 min to 4.5 min the 2-propanol concentration in the mobile phase was kept at 30%. From 4.5 min to 4.6 min, the 2-propanol concentration was decreased to 0% and kept like that until the end of the gradient run which was 6 min. A calibration set of compounds was first analyzed for which plasma protein binding data were available: Warfarin, Nizatidine, Bromazepam, Carbamazepine, Budesonide, Nicardipine, Indomethacine, Piroxicam, Naproxen. The calculation of the HSA binding data expressed as %HSA was carried out as described previously.

[4] = in vitro; assay type: in vitro ADME, mouse
Method: (§1) Protocol S6. Microsomal fraction stability experimental procedure.
(§2) Pooled mouse and human liver microsomes are purchased from Xenotech. Microsomes (final protein concentration 0.5 mg/mL, MgCl2 (final concentration = 5 mM) and test compound (final substrate concentration = 0.5 µM; final DMSO concentration = 0.5%) in 0.1M phosphate buffer pH 7.4 were pre-incubated at 37°C prior to the addition of NADPH (final concentration = 1 mM) to initiate the reaction. The final incubation volume was 600 µL. A control incubation was included for each compound tested where 0.1 M phosphate buffer pH 7.4 is added instead of NADPH (minus NADPH). One control compound was included with each species. All incubations were performed singularly for each test compound. Each compound was incubated for 30 minutes and samples (90 µL) of incubate were taken at 0, 5, 15, 20 and 30 min. The control (minus NADPH) was sampled at 30 min only. The reactions were stopped by the addition of sample to 200 µL Acetonitrile:Methanol 3:1 containing internal standard. The terminated samples were centrifuged at 2.500 rpm for 20 min at 4°C to precipitate the protein.
(§3) Quantitative Analysis: following protein precipitation, the samples were analyzed using specific […]
(§4) Data Analysis: from a plot of ln peak area ratio (compound peak area/internal standard peak area) against time, the gradient of the line was determined. Subsequently, half-life and intrinsic clearance were calculated using the equations below:
(§5) Elimination rate constant (k) = (- gradient)
(§6) Half life (t1/2) (min) = […]
(§7) Intrinsic Clearance (CLint) (mL/min/g protein) = […] where V=Incubation volume mL/g microsomal protein.

[5] = in vitro; assay type: in vitro ADME, human
Method: as §1, §2, §3, §4, §5, §6, §7

[6] = test system: Vero cells
[7] = test system: HepG2 cells
[8] = at 1 µM
[9] = Vero cytotoxicity assay (MTT); details: African green monkey, Vero cells

Sequence of human serum albumin (HSA) (P02768 25-609): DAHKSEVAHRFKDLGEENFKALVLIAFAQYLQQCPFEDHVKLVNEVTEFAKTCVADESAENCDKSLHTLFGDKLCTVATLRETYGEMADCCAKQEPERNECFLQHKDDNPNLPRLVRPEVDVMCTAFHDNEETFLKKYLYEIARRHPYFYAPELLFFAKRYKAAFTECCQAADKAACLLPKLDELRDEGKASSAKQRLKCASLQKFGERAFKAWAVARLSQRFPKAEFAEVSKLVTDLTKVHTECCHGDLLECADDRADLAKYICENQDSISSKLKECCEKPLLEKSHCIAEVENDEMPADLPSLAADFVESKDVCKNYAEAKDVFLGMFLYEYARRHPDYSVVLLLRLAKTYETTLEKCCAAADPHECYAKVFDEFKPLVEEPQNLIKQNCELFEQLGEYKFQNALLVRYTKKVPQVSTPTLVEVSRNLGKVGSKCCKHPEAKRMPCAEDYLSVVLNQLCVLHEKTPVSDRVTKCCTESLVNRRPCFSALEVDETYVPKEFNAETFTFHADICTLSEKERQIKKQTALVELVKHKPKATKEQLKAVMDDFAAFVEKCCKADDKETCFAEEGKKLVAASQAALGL

COc1c(N2C[C@@H]3CCCN[C@@H]3C2)c(F)cc2c(=O)c(C(=O)O)cn(C3CC3)c12 [Moxifloxacin]
ED99 (dose that reduces 2 logs bacterial burden in the lungs of mice; 95% confidence interval in parenthesis) [1]: 28 (26–29) mg/kg | AUC(0-inf) ([2]; 27.5 mg/kg): 9.4 µM·h

COc1ccc(-c2cc(CN3CCOCC3)c(C)n2-c2ccc(C(C)C)cc2)cc1 [Compound 25]
HSA (%) binding [3]: 97.02% | Cli mouse [4]: 10.55 mL/min/g | t1/2 in mouse microsomes [4]: <5 min | Cli human [5]: 0.5 mL/min/g | t1/2 in human microsomes [5]: >30 min | CC50 [6]: 12.9 µM | Tox50, cytotoxicity in HepG2 cells [7]: 15.9 µM | CHILogD pH 2: 1.36 | CHILogD pH 7.4: 4.36 | CHILogD pH 10.5: 4.86 | PPB (%) [8]: >99.9%

NNC(=O)c1ccncc1 [Isoniazid]
ED99 (dose that reduces 2 logs bacterial burden in the lungs of mice; 95% confidence interval in parenthesis) [1]: 0.95 (0.86–1.1 ) mg/kg | CC50 at 72 h [9]: > 256 µM | AUC(0-inf) ([2]; 0.98 mg/kg): 5.5 µM·h

CCCc1ccc(-n2c(-c3ccc(OC)cc3)cc(CN3CCOCC3)c2C)cc1 [Compound 24]
HSA (%) binding [3]: 97.43% | t1/2 in mouse microsomes [4]: >30 min | Cli human [5]: <0.5 mL/min/g | t1/2 in human microsomes [5]: >30 min | CC50 [6]: 31.2 µM | Tox50, cytotoxicity in HepG2 cells [7]: 2.1 µM | CHILogD pH 2: 1.46 | CHILogD pH 7.4: 4.52 | CHILogD pH 10.5: 4.97 | PPB (%) [8]: >99.9%
